Experimental data from patent US20150218534A1, “MODIFIED DNA POLYMERASE” (TOYOBO CO., LTD., priority 2012, published 2015).

How the values were obtained:
Type in all cases: biochemical
[1] = system: bisulfite-treated human genomic DNA (MINT1, RAR, THBS1, MINT31); experiment: PCR amplification of bisulfite-treated DNA; conditions: 40 cycles (FIG. 12)
Experimental: (§1) Using bisulfite-treated DNA as a template and various primers, the difference in PCR amplification was compared. For comparison, KOD mutant (Y7A/V93K) and KOD (wild-type), each mixed with 1 μg of a KOD antibody per U of the enzyme, and Taq DNA polymerase mixed with an antibody (a mixture of equal amounts of Taq DNA polymerase (produced by Toyobo Co. Ltd.) and Anti-Taq High (produced by Toyobo Co. Ltd.)) were used.
The bisulfite-treated DNA used was human genomic DNA (produced by Roche) that had been treated with a MethylCode Bisulfite Conversion Kit of Invitrogen.
For PCR with the KOD mutant (Y7A/V93K) and PCR with the KOD, a buffer, MgSO4, and dNTPs included in KOD-Plus-Ver. 2 (produced by Toyobo Co. Ltd.) were used. 50 μl of individual reaction solutions containing 1× PCR buffer, 1.5 mM MgSO4, dNTPs (dATP, dTTP, dCTP, dGTP) in an amount of 0.2 mM, primers (SEQ ID NOs: 42 and 43 for amplification of MINT1; SEQ ID NOs: 44 and 45for amplification of RAR; SEQ ID NOs: 46 and 47 for amplification of THBS1; SEQ ID NOs: 48 and 49 for amplification of MINT31) in an amount of 15 pmol, 1 μl of bisulfite-treated DNA extract, and 1 U of each respective enzyme mixed with the antibody were used. PCR was performed using a GeneAmp PCR system 9700 (Applied Biosystems) on the following schedule: preliminary reaction at 94° C. for 2 minutes, followed by 40 cycles, each cycle consisting of 98° C. for 10 seconds, 55° C. for 15 seconds, and 68° C. for 1 minute.
For PCR with the Taq DNA polymerase, 50 μl of a reaction solution containing 1× buffer included in Blend Taq (product of Toyobo), dNTPs (dATP, […], dCTP, dGTP) in an amount of 0.2 mM, primers in an amount of 15 pmol (the same as above), 1 μl of bisulfite-treated DNA extract, and 2.5 U of the enzyme mixed with the antibody was used. […]
(§2) After the completion of each individual reaction, each of the resulting reaction solutions was analyzed using a DNA-1000 kit for MultiNA (produced by Shimadzu Corporation) to confirm amplified DNA fragments.

Psychrobacter DNA = experiment: PCR amplification using inosine-containing primers; conditions: for amplification with inosine-containing primers: primers 75 pmol or 150 pmol, 35 cycles (FIG. 11)
Experimental: as §1, with “inosine-containing” for “bisulfite-treated DNA as a template and various”, “mutants” for “mutant (Y7A/V93K)”
For PCR with the KOD mutants and PCR with the KOD, a buffer, MgSO4, and dNTPs included in KOD-Plus-Ver. 2 (produced by Toyobo Co. Ltd.) were used. 50 μl of individual reaction solutions containing 1× PCR buffer, 1.5 mM MgSO4, dNTPs (dATP, dTTP, dCTP, dGTP) in an amount of 0.2 mM, primers (SEQ ID NOs: 40 and 41) in an amount of 75 pmol or 150 pmol, 100 ng of Psychrobacter DNA, and 1 U of each respective enzyme mixed with the antibody were used. PCR was performed using a GeneAmp PCR system 9700 (Applied Biosystems) on the following schedule: preliminary reaction at 94° C. for 2 minutes, followed by 35 cycles, each cycle consisting of 98° C. for 10 seconds, 54° C. for 10 seconds, and 68° C. for 1 minute.
For PCR with the Taq DNA polymerase, 50 μl of a reaction solution containing 1× buffer included in Blend Taq (product of Toyobo), dNTPs (dATP, […], dCTP, dGTP) in an amount of 0.2 mM, primers in an amount of 75 pmol or 150 pmol (the same as above), 100 ng of Psychrobacter DNA, and 2.5 U of the enzyme mixed with the antibody was used. PCR was performed using a GeneAmp PCR system 9700 (Applied Biosystems) on the following schedule: preliminary reaction at 94° C. for 2 minutes, followed by 35 cycles, each cycle consisting of 94° C. for 30 seconds, 54° C. for 30 seconds, and 68° C. for 1 minute.
as §2

[2] = system: 1.3 kbp, 2.8 kbp, and 3.6 kbp of human β-globin; experiment: Amplification of long-chain DNA in PCR using dUTP; conditions: 1.3, 2.8, 3.6 kbp; 100% dUTP (FIGS. 9 and 10)
Experimental: Amplification of 1.3 kbp, 2.8 kbp, and 3.6 kbp of human β-globin in PCR using dUTP was compared. For amplification, each enzyme was used after being mixed with 1 μg of a KOD antibody per U of the enzyme. For PCR, components included in KOD-Plus-Ver. 2 (produced by Toyobo Co. Ltd.) were used. 50 μl of individual reaction solutions containing 1× PCR buffer, 1.5 mM MgSO4, dNTPs (dATP, dUTP, dCTP, dGTP) in an amount of 2 mM in which dTTP was replaced by dUTP, primers in an amount of 15 pmol (SEQ ID NOs: 25 and 26 for amplification of 1.3 kbp; SEQ ID NOs: 26 and 29 for amplification of 2.8 kbp; SEQ ID NOs: 30 and 31 for amplification of 3.6 kbp), 10 ng of human genomic DNA (produced by Roche), and 1 U of each respective enzyme mixed with the antibody were used. PCR was performed using a GeneAmp PCR system 9700 (Applied Biosystems) on the following schedule: preliminary reaction at 94° C. for 2 minutes, followed by 35 cycles, each cycle consisting of 98° C. for 10 seconds, 65° C. for 30 seconds, and 68° C. for about 1 minute per kbp (1 minute and 30 seconds for amplification of 1.3 kbp; 3 minutes for amplification of 2.8 kbp; 4 minutes for amplification of 3.6 kbp). As a control, amplification was also performed using Taq DNA polymerase. Taq DNA polymerase produced by Toyobo Co. Ltd. mixed with Anti-Taq High (produced by Toyobo Co. Ltd.) was used. 50 μl of a reaction solution containing 1× buffer included in Blend Taq, dNTPs (dATP, dUTP, dCTP, dGTP) in an amount of 2 mM in which dTTP was replaced by dUTP, primers in an amount of 10 pmol the same as the above), 10 ng of human genomic DNA (produced by Roche), and 2.5 U of the enzyme mixed with the antibody was used. PCR was performed using a GeneAmp PCR system 9700 (produced by Applied Biosystems) on the following schedule: preliminary reaction at 94° C. for 2 minutes, followed by 35 cycles, each cycle consisting of 94° C. for 30 seconds, 65° C. for 30 seconds, and 68° C. for about 1 minute per kbp (1 minute and 30 seconds for amplification of 1.3 kbp; 3 minutes for amplification of 2.8 kbp; 4 minutes for amplification of 3.6 kbp). After the completion of each individual reaction, 5 μl of each of the resulting reaction solutions was subjected to agarose electrophoresis, followed by ethidium bromide staining, and the amount of amplified DNA fragments was confirmed under ultraviolet irradiation. FIGS. 9 and 10 show the results.

[3] = system: human genomic DNA (about 1.3 kb) with dUTP added; experiment: Evaluation of uracil (dUTP) sensitivity by PCR with dUTP added to the reaction; conditions: addition of 0.5 μM of dUTP
In short: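 Each enzyme (1 U) amplified about 1.3 kb from 10 ng human genomic DNA in KOD-Plus-Ver. 2 buffer with 1.5 mM MgSO4 and 0.2 mM dNTPs. dUTP was added at final 0.5, 5, 50, 100 and 200 μM, over 30 cycles of 98/65/68° C. Sensitivity is the dUTP level still yielding product on ethidium bromide-stained agarose gel.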

Molecule | amplification of bisulfite-treated DNA [1] | amount of inosine-containing primers at which amplification was observed (Psychrobacter DNA; 75 pmol or 150 pmol tested) [pmol] | amplification with inosine-containing primers (Psychrobacter DNA) | amount of amplification of long-chain DNA with dUTP [2] | PCR products on addition of dUTP [3]
Taq DNA polymerase: Taq DNA polymerase produced by Toyobo Co. Ltd. mixed with Anti-Taq High, used as control [reference compound] | stable amplification was confirmed | 150 | stable amplification was confirmed | cannot be amplified | 
KOD (wild-type): wild-type DNA polymerase from Thermococcus kodakaraensis (KOD) (protein, listed as Thermococcus kodakaraensis) MILDTDYITEDGKPVIRIFKKENGEFKIEYDRTFEPYFYALLKDDSAIEEVKKITAERHGTVVTVKRVEKVQKKFLGRPVEVWKLYFTHPQDVPAIRDKIREHPAVIDIYEYDIPFAKRYLIDKGLVPMEGDEELKMLAFDIETLYHEGEEFAEGPILMISYADEEGARVITWKNVDLPYVDVVSTEREMIKRFLRVVKEKDPDVLITYNGDNFDFAYLKKRCEKLGINFALGRDGSEPKIQRMGDRFAVEVKGRIHFDLYPVIRRTINLPTYTLEAVYEAVFGQPKEKVYAEEITTAWETGENLERVARYSMEDAKVTYELGKEFLPMEAQLSRLIGQSLWDVSRSSTGNLVEWFLLRKAYERNELAPNKPDEKELARRRQSYEGGYVKEPERGLWENIVYLDFRSLYPSIIITHNVSPDTLNREGCKEYDVAPQVGHRFCKDFPGFIPSLLGDLLEERQKIKKKMKATIDPIERKLLDYRQRAIKILANSYYGYYGYARARWYCKECAESVTAWGREYITMTIKEIEEKYGFKVIYSDTDGFFATIPGADAETVKKKAMEFLKYINAKLPGALELEYEGFYKRGFFVTKKKYAVIDEEGKITTRGLEIVRRDWSEIAKETQARVLEALLKDGDVEKAVRIVKEVTEKLSKYEVPPEKLVIHEQITRDLKDYKATGPHVAVAKRLAARGVKIRPGTVISYIVLKGSGRIGDRAIPFDEFDPTKHKYDAEYYIENQVLPAVERILRAFGYRKEDLRYQKTRQVGLSAWLKPKGT | not amplified |  | not amplified |  | no PCR products were confirmed
